From PubChem BioAssay AID248 (DTP/NCI, 2004)
Several values for one entry are separate records, joined by “and”; a condition that tells them apart may be missing. Equal values may be shown once. Inconclusive results and toxic doses are left out. Rule as the data show it: active = T/C of 150% or more; inactive = T/C below 125%.

Tested on: L1210 leukemia ip in BDF1 mice, survival T/C
Experiment: NCI In Vivo Anticancer Drug Screen. Data for tumor model L1210 Leukemia (intraperitoneal) in B6D2F1 (BDF1) mice
Conditions: endpoint: mean survival time, higher = longer survival
Summary of the method: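 Each compound was tested against a transplantable tumor grown in mice. The endpoint was survival, with treated animals benchmarked against vehicle controls as a simple ratio.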

[1] = dose: 100.0 mg/kg/injection, schedule: Q01DX001 (ip), vehicle: saline
[2] = dose: 200.0 mg/kg/injection, schedule: Q01DX001 (ip), vehicle: saline
[3] = dose: 400.0 mg/kg/injection, schedule: Q01DX001 (ip), vehicle: saline
[4] = dose: 100.0 mg/kg/injection, schedule: Q04DX003 (ip), vehicle: saline
[5] = dose: 100.0 mg/kg/injection, schedule: Q01DX001 (ip), vehicle: Klucel (hydroxypropylcellulose) (HPC)
[6] = dose: 200.0 mg/kg/injection, schedule: Q01DX001 (ip), vehicle: Klucel (hydroxypropylcellulose) (HPC)
[7] = dose: 400.0 mg/kg/injection, schedule: Q01DX001 (ip), vehicle: Klucel (hydroxypropylcellulose) (HPC)
[8] = dose: 100.0 mg/kg/injection, schedule: Q01DX001 (ip), vehicle: water
[9] = dose: 200.0 mg/kg/injection, schedule: Q01DX001 (ip), vehicle: water
[10] = dose: 400.0 mg/kg/injection, schedule: Q01DX001 (ip), vehicle: water
[11] = dose: 100.0 mg/kg/injection, schedule: Q01DX009 (ip), vehicle: Klucel (hydroxypropylcellulose) (HPC)
[12] = dose: 100.0 mg/kg/injection, schedule: Q04DX003 (ip), vehicle: Klucel (hydroxypropylcellulose) (HPC)
[13] = dose: 200.0 mg/kg/injection, schedule: Q01DX009 (ip), vehicle: Klucel (hydroxypropylcellulose) (HPC)
[14] = dose: 200.0 mg/kg/injection, schedule: Q04DX003 (ip), vehicle: Klucel (hydroxypropylcellulose) (HPC)
[15] = dose: 400.0 mg/kg/injection, schedule: Q01DX009 (ip), vehicle: Klucel (hydroxypropylcellulose) (HPC)
[16] = dose: 400.0 mg/kg/injection, schedule: Q04DX003 (ip), vehicle: Klucel (hydroxypropylcellulose) (HPC)
[17] = dose: 50.0 mg/kg/injection, schedule: Q04DX003 (ip), vehicle: saline

Measured: T/C

NC(=S)c1c(N)n(C2OC(CO)C(O)C2O)c2ncnc(N)c12 (stereo not drawn)
inactive: dose: 3.12 mg/kg/injection, schedule: Q01DX005 (ip), vehicle: saline 116 % of control | dose: 6.25 mg/kg/injection, schedule: Q01DX005 (ip), vehicle: saline 119 % of control and 124 % of control | dose: 12.5 mg/kg/injection, schedule: Q01DX005 (ip), vehicle: saline 112 % of control and 119 % of control | dose: 25.0 mg/kg/injection, schedule: Q01DX005 (ip), vehicle: saline 105 % of control | dose: 50.0 mg/kg/injection, schedule: Q01DX005 (ip), vehicle: saline 120 % of control

O=C(Nc1ccccc1)c1ccccc1C(O)(c1ccccc1)c1ccccc1
inactive: [1] 97 % of control | [2] 86 % of control | [3] 102 % of control

CC(=O)N(C(C)=O)c1ccc(C)cc1
inactive: dose: 100.0 mg/kg/injection, schedule: Q01DX009 (ip), vehicle: saline 109 % of control | [4] 95 % of control | dose: 200.0 mg/kg/injection, schedule: Q01DX009 (ip), vehicle: saline 112 % of control | dose: 200.0 mg/kg/injection, schedule: Q04DX003 (ip), vehicle: saline 108 % of control | dose: 400.0 mg/kg/injection, schedule: Q04DX003 (ip), vehicle: saline 103 % of control

Cc1c(Cl)c(CCl)c(Cl)c(CCl)c1Cl
inactive: [5] 94 % of control | [6] 92 % of control | [7] 89 % of control

CC(CN(C)C)CN1c2ccccc2C(C)(C)c2ccccc21 (stereo not drawn)
inactive: dose: 13.8 mg/kg/injection, schedule: Q01DX001 (ip), vehicle: water 101 % of control | dose: 27.5 mg/kg/injection, schedule: Q01DX001 (ip), vehicle: water 104 % of control | dose: 45.0 mg/kg/injection, schedule: Q01DX001 (ip), vehicle: water 98 % of control | dose: 50.0 mg/kg/injection, schedule: Q01DX001 (ip), vehicle: water 91 % of control | [8] 91 % of control | [9] 91 % of control | [10] 97 % of control

Cc1ccc(S(=O)(=O)N/N=C\c2cc(Cl)ccc2O)cc1
inactive: [11] 105 % of control | [12] 100 % of control | [13] 100 % of control | [14] 103 % of control | [15] 103 % of control | [16] 100 % of control

CS(=O)(=O)OC1CCCCCCC1OS(C)(=O)=O (stereo not drawn)
inactive: dose: 50.0 mg/kg/injection, schedule: Q04DX003 (ip), vehicle: Klucel (hydroxypropylcellulose) (HPC) 103 % of control | [5] 98 % of control | [12] 104 % of control | [6] 98 % of control | [14] 98 % of control | [7] 104 % of control | [16] 104 % of control

CSc1ncc2c(=O)n(-c3ccccc3)[nH]c2n1
inactive: [5] 103 % of control | [6] 97 % of control | [7] 87 % of control

CCCCCCCSc1nsc(SCCCCCCC)c1C#N
inactive: [11] 104 % of control | [13] 114 % of control | [15] 101 % of control

COc1ccc2c(c1)CCC1C2=CCC2C1C(=O)CCC2(OC)OC (stereo not drawn)
inactive: dose: 50.0 mg/kg/injection, schedule: Q01DX001 (ip), vehicle: Klucel (hydroxypropylcellulose) (HPC) 98 % of control | [5] 101 % of control | [6] 96 % of control

CC/C(C)=N\O
inactive: dose: 50.0 mg/kg/injection, schedule: Q01DX001 (ip), vehicle: saline 112 % of control | [1] 101 % of control | [2] 93 % of control | [3] 95 % of control

CCOC(=O)CC(C(C)=O)C(=O)OCC (stereo not drawn)
inactive: dose: 50.0 mg/kg/injection, schedule: Q01DX001 (ip), vehicle: carboxymethylcellulose (CMC) 100 % of control | dose: 100.0 mg/kg/injection, schedule: Q01DX001 (ip), vehicle: carboxymethylcellulose (CMC) 100 % of control | dose: 200.0 mg/kg/injection, schedule: Q01DX001 (ip), vehicle: carboxymethylcellulose (CMC) 94 % of control | dose: 400.0 mg/kg/injection, schedule: Q01DX001 (ip), vehicle: carboxymethylcellulose (CMC) 100 % of control

O=C(COc1ccc(Cl)c(Cl)c1)Nc1ccc[n+](CC(=O)c2cccc(S(=O)(=O)F)c2)c1
inactive: dose: 25.0 mg/kg/injection, schedule: Q01DX001 (ip), vehicle: saline with Tween-80 96 % of control | dose: 50.0 mg/kg/injection, schedule: Q01DX001 (ip), vehicle: saline with Tween-80 98 % of control | dose: 100.0 mg/kg/injection, schedule: Q01DX001 (ip), vehicle: saline with Tween-80 107 % of control

CCCN1CCN(c2ccccc2)CC1
inactive: dose: 25.0 mg/kg/injection, schedule: Q04DX003 (ip), vehicle: saline 90 % of control | [17] 97 % of control | [4] 92 % of control

Cc1ccc(-c2nc3ccccc3c(=O)o2)cc1
inactive: dose: 50.0 mg/kg/injection, schedule: Q01DX009 (ip), vehicle: gum acacia 93 % of control and 100 % of control | dose: 100.0 mg/kg/injection, schedule: Q01DX009 (ip), vehicle: gum acacia 93 % of control and 100 % of control | dose: 100.0 mg/kg/injection, schedule: Q04DX003 (ip), vehicle: gum acacia 106 % of control | dose: 200.0 mg/kg/injection, schedule: Q04DX003 (ip), vehicle: gum acacia 88 % of control

O=[As]1(c2cccc3ccccc23)c2ccccc2Cc2ccccc21
inactive: dose: 83.0 mg/kg/injection, schedule: Q01DX Z (ip), vehicle: methylcellulose (MC) 86 % of control | dose: 125.0 mg/kg/injection, schedule: Q01DX Z (ip), vehicle: methylcellulose (MC) 86 % of control

CCCCCC(=O)c1c(O)cc(=O)oc1C
inactive: dose: 3.12 mg/kg/injection, schedule: Q01DX009 (ip), vehicle: Klucel (hydroxypropylcellulose) (HPC) 95 % of control | dose: 6.25 mg/kg/injection, schedule: Q01DX009 (ip), vehicle: Klucel (hydroxypropylcellulose) (HPC) 98 % of control | dose: 12.5 mg/kg/injection, schedule: Q01DX009 (ip), vehicle: Klucel (hydroxypropylcellulose) (HPC) 103 % of control | [12] 90 % of control

CNC(C#N)c1ccco1 (stereo not drawn)
inactive: dose: 6.25 mg/kg/injection, schedule: Q04DX003 (ip), vehicle: saline 102 % of control | dose: 12.5 mg/kg/injection, schedule: Q04DX003 (ip), vehicle: saline 95 % of control | [17] 94 % of control

O=C(NCCF)NC1CCCCCCCCCCC1
inactive: dose: 9.5 mg/kg/injection, schedule: Q01DX001 (ip), vehicle: other 101 % of control | dose: 19.0 mg/kg/injection, schedule: Q01DX001 (ip), vehicle: other 92 % of control | dose: 38.0 mg/kg/injection, schedule: Q01DX001 (ip), vehicle: other 121 % of control

COc1ccc(CC(=O)N2CCc3cc(OC)c(OC)cc3C2O)cc1OC (stereo not drawn)
inactive: dose: 100.0 mg/kg/injection, schedule: Q01DX009 (ip), vehicle: saline with Tween-80 96 % of control | dose: 100.0 mg/kg/injection, schedule: Q04DX003 (ip), vehicle: saline with Tween-80 100 % of control | dose: 200.0 mg/kg/injection, schedule: Q01DX009 (ip), vehicle: saline with Tween-80 91 % of control | dose: 200.0 mg/kg/injection, schedule: Q04DX003 (ip), vehicle: saline with Tween-80 103 % of control | dose: 400.0 mg/kg/injection, schedule: Q01DX009 (ip), vehicle: saline with Tween-80 88 % of control | dose: 400.0 mg/kg/injection, schedule: Q04DX003 (ip), vehicle: saline with Tween-80 102 % of control

Oc1cccc(-c2nnc(-c3cccc(O)c3)nn2)c1
inactive: [1] 101 % of control | [2] 96 % of control | [3] 102 % of control

CC1(C)CC(OP(=O)(OC2CC(C)(C)N(O)C(C)(C)C2)c2ccccc2)CC(C)(C)N1O
inactive: [8] 91 % of control | [9] 106 % of control | [10] 89 % of control

CNc1nc(N(C)C)nc(N(C)C)n1
inactive: dose: 75.0 mg/kg/injection, schedule: Q01DX001 (ip), vehicle: saline 92 % of control | dose: 150.0 mg/kg/injection, schedule: Q01DX001 (ip), vehicle: saline 94 % of control

N#CC(C#N)=Cc1ccco1
inactive: dose: 5.0 mg/kg/injection, schedule: Q01DX001 (ip), vehicle: saline 91 % of control | dose: 10.0 mg/kg/injection, schedule: Q01DX001 (ip), vehicle: saline 102 % of control | dose: 20.0 mg/kg/injection, schedule: Q01DX001 (ip), vehicle: saline 100 % of control | dose: 40.0 mg/kg/injection, schedule: Q01DX001 (ip), vehicle: saline 94 % of control
